Measurements from patent US12077503B2, “Substituted cyclic amides and their use as herbicides” (FMC CORPORATION, priority 2015, dated 2024).

Key:
Assay in all cases: Test C preemergence
Type in all cases: in vivo
[1] = system: ragweed (common ragweed, Ambrosia elatior); settings: for Plant response rating, Ragweed: scale 0 to 100, 0 no effect, 100 complete control
In short: (§1)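 After treatment with surfactant-containing formulations, either preemergence to seeds in loam-sand soil or postemergence to potted seedlings at 2–18 cm, plants were kept 13–15 d in a greenhouse. Observers then compared them with controls and assigned ratings, 0 signifying no effect and 100 complete control.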

[2] = system: barnyardgrass (Echinochloa crus-galli); settings: for Plant response rating, Barnyardgrass: scale 0 to 100, 0 no effect, 100 complete control
In short: as §1

[3] = system: pigweed (Amaranthus retroflexus); settings: for Plant response rating, Pigweed: scale 0 to 100, 0 no effect, 100 complete control
In short: as §1

[4] = system: ryegrass, Italian (Italian ryegrass, Lolium multiflorum); settings: for Plant response rating, Ryegrass, Italian: scale 0 to 100, 0 no effect, 100 complete control
In short: as §1

[5] = system: velvetleaf (Abutilon theophrasti); settings: for Plant response rating, Velvetleaf: scale 0 to 100, 0 no effect, 100 complete control
In short: as §1

[6] = system: morningglory (Ipomoea coccinea); settings: for Plant response rating, Morningglory: scale 0 to 100, 0 no effect, 100 complete control
In short: as §1

[7] = system: johnsongrass (Sorghum halepense); settings: for Plant response rating, Johnsongrass: scale 0 to 100, 0 no effect, 100 complete control
In short: as §1

[8] = system: foxtail, giant (giant foxtail, Setaria faberii); settings: for Plant response rating, Foxtail, Giant: scale 0 to 100, 0 no effect, 100 complete control
In short: as §1

[9] = system: blackgrass (Alopecurus myosuroides); settings: for Plant response rating, Blackgrass: scale 0 to 100, 0 no effect, 100 complete control
In short: as §1

[10] = system: Galium (catchweed bedstraw, Galium aparine); settings: for Plant response rating, Galium: scale 0 to 100, 0 no effect, 100 complete control
In short: as §1

[11] = system: crabgrass, large (large crabgrass, Digitaria sanguinalis); settings: for Plant response rating, Crabgrass, Large: scale 0 to 100, 0 no effect, 100 complete control
In short: as §1

[12] = system: wheat (winter wheat, Triticum aestivum); settings: for Plant response rating, Wheat: scale 0 to 100, 0 no effect, 100 complete control
In short: as §1

[13] = system: nutsedge, yellow (yellow nutsedge, Cyperus esculentus); settings: for Plant response rating, Nutsedge, Yellow: scale 0 to 100, 0 no effect, 100 complete control
In short: as §1

[14] = system: lambsquarters (Chenopodium album); settings: for Plant response rating, Lambsquarters: scale 0 to 100, 0 no effect, 100 complete control
In short: as §1

[15] = system: waterhemp (common waterhemp, Amaranthus rudis); settings: for Plant response rating, Waterhemp: scale 0 to 100, 0 no effect, 100 complete control
In short: as §1

[16] = system: oilseed rape (Brassica napus); settings: for Plant response rating, Oilseed Rape: scale 0 to 100, 0 no effect, 100 complete control
In short: as §1

corn (Zea mays) = settings: for Plant response rating, Corn: scale 0 to 100, 0 no effect, 100 complete control
In short: as §1

[17] = 31 g ai/ha, 0 is no effect, 100 is complete control

## CN1CC(c2ccc(C(F)(F)F)cc2)C(C(=O)Nc2ccccc2S(C)(=O)=O)C1=O (centres unmarked) [Compound 624]
[1]; [17]
  Plant response rating (scale of 0 to 100), Ragweed: 25
[1]; 62 g ai/ha
  Plant response rating, Ragweed: 55
[1]; 125 g ai/ha
  Plant response rating, Ragweed: 75
[1]; 250 g ai/ha
  Plant response rating, Ragweed: 80
[2]; [17]
  Plant response rating (scale of 0 to 100), Barnyardgrass: 75
[2]; 62 g ai/ha
  Plant response rating, Barnyardgrass: 90
[2]; 125 g ai/ha
  Plant response rating, Barnyardgrass: 95
[2]; 250 g ai/ha
  Plant response rating, Barnyardgrass: 95
[3]; [17]
  Plant response rating (scale of 0 to 100), Pigweed: 80
[3]; 62 g ai/ha
  Plant response rating, Pigweed: 85
[3]; 125 g ai/ha
  Plant response rating, Pigweed: 85
[3]; 250 g ai/ha
  Plant response rating, Pigweed: 90
[4]; [17]
  Plant response rating (scale of 0 to 100), Ryegrass, Italian: 10
[4]; 62 g ai/ha
  Plant response rating, Ryegrass, Italian: 40
[4]; 125 g ai/ha
  Plant response rating, Ryegrass, Italian: 30
[4]; 250 g ai/ha
  Plant response rating, Ryegrass, Italian: 30
[5]; [17]
  Plant response rating (scale of 0 to 100), Velvetleaf: 10
[5]; 62 g ai/ha
  Plant response rating, Velvetleaf: 30
[5]; 125 g ai/ha
  Plant response rating, Velvetleaf: 45
[5]; 250 g ai/ha
  Plant response rating, Velvetleaf: 65
[6]; [17]
  Plant response rating (scale of 0 to 100), Morningglory: 0
[6]; 62 g ai/ha
  Plant response rating, Morningglory: 0
[6]; 125 g ai/ha
  Plant response rating, Morningglory: 30
[6]; 250 g ai/ha
  Plant response rating, Morningglory: 35
[7]; [17]
  Plant response rating (scale of 0 to 100), Johnsongrass: 0
[7]; 62 g ai/ha
  Plant response rating, Johnsongrass: 0
[7]; 125 g ai/ha
  Plant response rating, Johnsongrass: 0
[7]; 250 g ai/ha
  Plant response rating, Johnsongrass: 25
[8]; [17]
  Plant response rating (scale of 0 to 100), Foxtail, Giant: 85
[8]; 62 g ai/ha
  Plant response rating, Foxtail, Giant: 90
[8]; 125 g ai/ha
  Plant response rating, Foxtail, Giant: 90
[8]; 250 g ai/ha
  Plant response rating, Foxtail, Giant: 95
[9]; [17]
  Plant response rating (scale of 0 to 100), Blackgrass: 50
[9]; 62 g ai/ha
  Plant response rating, Blackgrass: 70
[9]; 125 g ai/ha
  Plant response rating, Blackgrass: 90
[9]; 250 g ai/ha
  Plant response rating, Blackgrass: 90
[10]; [17]
  Plant response rating (scale of 0 to 100), Galium: 50
[10]; 62 g ai/ha
  Plant response rating, Galium: 85
[10]; 125 g ai/ha
  Plant response rating, Galium: 80
[10]; 250 g ai/ha
  Plant response rating, Galium: 85
[11]; [17]
  Plant response rating (scale of 0 to 100), Crabgrass, Large: 95
[11]; 62 g ai/ha
  Plant response rating, Crabgrass, Large: 100
[11]; 125 g ai/ha
  Plant response rating, Crabgrass, Large: 100
[11]; 250 g ai/ha
  Plant response rating, Crabgrass, Large: 98
[12]; [17]
  Plant response rating (scale of 0 to 100), Wheat: 0
[12]; 62 g ai/ha
  Plant response rating, Wheat: 35
[12]; 125 g ai/ha
  Plant response rating, Wheat: 45
[12]; 250 g ai/ha
  Plant response rating, Wheat: 80
[13]; [17]
  Plant response rating (scale of 0 to 100), Nutsedge, Yellow: 0
[13]; 62 g ai/ha
  Plant response rating, Nutsedge, Yellow: 0
[13]; 125 g ai/ha
  Plant response rating, Nutsedge, Yellow: 25
[13]; 250 g ai/ha
  Plant response rating, Nutsedge, Yellow: 50
[14]; [17]
  Plant response rating (scale of 0 to 100), Lambsquarters: 35
[14]; 62 g ai/ha
  Plant response rating, Lambsquarters: 40
[14]; 125 g ai/ha
  Plant response rating, Lambsquarters: 70
[14]; 250 g ai/ha
  Plant response rating, Lambsquarters: 60
[15]; [17]
  Plant response rating (scale of 0 to 100), Waterhemp: 85
[15]; 62 g ai/ha
  Plant response rating, Waterhemp: 90
[15]; 125 g ai/ha
  Plant response rating, Waterhemp: 90
[15]; 250 g ai/ha
  Plant response rating, Waterhemp: 100
[16]; [17]
  Plant response rating (scale of 0 to 100), Oilseed Rape: 75
[16]; 62 g ai/ha
  Plant response rating, Oilseed Rape: 80
[16]; 125 g ai/ha
  Plant response rating, Oilseed Rape: 85
[16]; 250 g ai/ha
  Plant response rating, Oilseed Rape: 85
Corn (Zea mays); [17]
  Plant response rating (scale of 0 to 100), Corn: 0
Corn (Zea mays); 62 g ai/ha
  Plant response rating, Corn: 0
Corn (Zea mays); 125 g ai/ha
  Plant response rating, Corn: 5
Corn (Zea mays); 250 g ai/ha
  Plant response rating, Corn: 65
